The values below come from ChEMBL document CHEMBL1128115, “Synthesis and pharmacological activity of combretastatin analogues. Naphthylcombretastatins and related compounds” (Bioorg Med Chem Lett, 1995).

What is called IC50 is the point on the concentration scale where inhibition reaches its midpoint.

Common to all, as to format: functional, cell-based
For experiment [1], the system named is P388. The experiment in a line: Compound was tested for inhibition of cell growth of P-388 cells. The settings on record: Mus musculus.
In experiment [2] the test system is A549. The experiment in a line: Compound was tested for inhibition of cell growth of A-549 cells. To be noted: Homo sapiens.
The nature of experiment [3]: Compound was tested for inhibition of cell growth of MEL-28 cells. To be noted: Homo sapiens, SK-MEL-28.
The test system of experiment [4] is HT-29. The experiment can be described thus: Compound was tested for inhibition of cell growth of HT-29 cells. To be noted: Homo sapiens.
Experiment [5] concerns L1210. The experiment can be described thus: Compound was tested for inhibition of cell growth of L1210 leukemia cells. To be noted: Mus musculus.

Take `COc1cc(CCc2ccc3c(c2)OCO3)cc(OC)c1OC`: the half-maximal inhibitory concentration (IC50) in experiment [1], in experiment [2], in experiment [3] and in experiment [4] was 6.3 µM each time.

As to `COc1ccc(CCc2cc(OC)c(OC)c(OC)c2)cc1OC`, the IC50 in experiment [1], in experiment [2], in experiment [3] and in experiment [4] was 15 µM each time.

Turning to `COc1ccc(C(=O)Cc2cc(OC)c(OC)c(OC)c2)cc1OC`, the half-maximal inhibitory concentration (IC50) in experiment [1], in experiment [2], in experiment [3] and in experiment [4] was above 28.9 µM each time.

Regarding `COc1ccc(C2(Cc3cc(OC)c(OC)c(OC)c3)SCCCS2)cc1OC`, the concentration for half-maximal inhibition (IC50) in experiment [1] was 22.9 µM; in experiment [2], 22.9 µM; in experiment [3] it was above 22.9 µM; in experiment [4] it was 22.9 µM.

As for `COc1cc(CC2(c3ccc4ccccc4c3)SCCCS2)cc(OC)c1OC`, the IC50 was 5.8 µM in experiment [1], 5.8 µM in experiment [2], 11.7 µM in experiment [3] and 5.8 µM in experiment [4].

With `Oc1ccc(CCc2ccc3c(c2)OCO3)cc1`, the half-inhibitory concentration (IC50) in experiment [1] was 41.2 µM; in experiment [2], above 41.2 µM; in experiment [3] it was above 41.2 µM; in experiment [4], above 41.2 µM.

Take `COc1cc([C@@H]2c3cc4c(cc3[C@H](O)[C@H]3COC(=O)[C@H]23)OCO4)cc(OC)c1OC` [PODOFILOX]: the IC50 in experiment [1] stood at 0.05 µM; in experiment [2] it was 0.05 µM; in experiment [3], 0.06 µM; in experiment [4] it was 0.05 µM.

On to `COc1cc(C(=O)Cc2cc(OC)c(OC)c(OC)c2)ccc1O`, for which the IC50 was 30 µM in experiment [1], above 30 µM in experiment [2], above 30 µM in experiment [3] and above 30 µM in experiment [4].

For the compound `COc1cc(CCc2ccc3ccccc3c2)cc(OC)c1OC`, the IC50 in experiment [1], in experiment [2], in experiment [3] and in experiment [4] was 0.3 µM each time.

For the compound `COc1ccc(C(O)Cc2cc(OC)c(OC)c(OC)c2)cc1OC` (centres undefined), the half-maximal inhibitory concentration (IC50) in experiment [1] is 28.7 µM; in experiment [2], above 28.7 µM; in experiment [3] it was above 28.7 µM; in experiment [4], above 28.7 µM.

In experiment [5], `c1ccc2cc(C3SCCCS3)ccc2c1` came in with a 50% inhibitory concentration (IC50) of 20 µM.

Consider `COc1cc(CC(=O)c2ccc3ccccc3c2)cc(OC)c1OC`, for which the IC50 came out at 14.8 µM in experiment [1], 14.8 µM in experiment [2], 14.8 µM in experiment [3] and 29.7 µM in experiment [4].

On to `COc1cc(CC2(c3ccc4c(c3)OCO4)SCCCS2)cc(OC)c1OC`, for which the IC50 in experiment [1] was determined as 5.9 µM; in experiment [2] it was 5.9 µM; in experiment [3], 4.7 µM; in experiment [4], 5.9 µM.
